How the values were obtained:
[1] = target: NAMPT (human, recombinant, C-terminally His-tagged) (Homo sapiens, UniProt P43490); assay: Time-Resolved Fluorescence Resonance Energy Transfer (TR-FRET) Binding Assay of NAMPT; conditions: 6.8 nM NAMPT, 200 nM probe, equilibrated 3 hours, absence of substrates
Outline: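 Probe displacement measured by TR-FRET (Ex 337 nm; 520/495 nm ratio) after 3 h room-temperature equilibration of compound with 6.8 nM His-tagged human NAMPT, 1 nM Tb-anti-His antibody and 200 nM Oregon Green 488 nicotinamide-site probe, pH 7.5 HEPES buffer, 2% DMSO. Control-normalized data fit four-parameter logistic for IC50.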

NAMPT = NAMPT (Homo sapiens, UniProt P43490); assay: Time-Resolved Fluorescence Resonance Energy Transfer (TR-FRET) Binding Assay of NAMPT with PRPP; conditions: 2 nM NAMPT, 2 nM probe, 200 uM PRPP and 2.5 mM ATP, equilibrated 16 hours
Outline: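 Binding measured by TR-FRET after a 16-hour equilibration meant to permit enzymatic compound modification. Substrates present at 200 uM PRPP and 2.5 mM ATP, with 2 nM enzyme, 2 nM probe, 1 nM Tb-anti-His antibody and 2% DMSO final.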

Sequence of NAMPT (P43490 whole entry): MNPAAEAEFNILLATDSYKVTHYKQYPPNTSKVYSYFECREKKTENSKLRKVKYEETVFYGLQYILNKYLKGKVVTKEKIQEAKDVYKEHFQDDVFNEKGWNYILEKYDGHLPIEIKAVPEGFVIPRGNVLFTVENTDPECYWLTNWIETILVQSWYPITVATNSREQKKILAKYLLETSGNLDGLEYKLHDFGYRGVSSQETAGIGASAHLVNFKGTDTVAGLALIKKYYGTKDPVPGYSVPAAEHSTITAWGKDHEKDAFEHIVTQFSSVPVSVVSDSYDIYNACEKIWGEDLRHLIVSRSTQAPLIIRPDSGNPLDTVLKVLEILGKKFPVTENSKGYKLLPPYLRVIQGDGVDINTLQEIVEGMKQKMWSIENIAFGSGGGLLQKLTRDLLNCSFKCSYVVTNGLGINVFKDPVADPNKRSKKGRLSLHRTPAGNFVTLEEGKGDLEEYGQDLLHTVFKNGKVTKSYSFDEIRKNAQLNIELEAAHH
Sequence of NAMPT (human, recombinant, C-terminally His-tagged) (P43490 whole entry): as above

Row | IC50 [1] | IC50 (NAMPT) | Compound
1 | 12.1 nM | 18.2 nM | O=C(Nc1ccc(OC2CN(C(=O)C(F)(F)c3ccccc3)C2)cc1)C1CN(c2ccnnc2)C1 [Example 201, N-[4-({1-[difluoro(phenyl)acetyl]azetidin-3-yl}oxy)phenyl]-1-(pyridazin-4-yl)azetidine-3-carboxamide]
2 | 56.7 nM | 0.438 nM | O=C(Nc1ccc(C2CCN(C(=O)Cc3ccc(C(F)(F)F)cc3)CC2)cc1)C1CN(c2cccnn2)C1 [Example 371, 1-(pyridazin-3-yl)-N-[4-(1-{[4-(trifluoromethyl)phenyl]acetyl}piperidin-4-yl)phenyl]azetidine-3-carboxamide]
3 | 30.6 nM | 0.497 nM | O=C(Nc1ccc(C2CCN(C(=O)CC3C[C@@H]4CC[C@H]3C4)CC2)cc1)C1CN(c2cccnc2)C1 (stereo partly drawn) [Example 100, N-(4-{1-[(1S,4R)-bicyclo[2.2.1]hept-2-ylacetyl]piperidin-4-yl}phenyl)-1-(pyridin-3-yl)azetidine-3-carboxamide]
4 | 20.5 nM | 14.9 nM | CC(C)(C(=O)N1CCC(Oc2ccc(NC(=O)C3CN(c4ccnnc4)C3)cc2)CC1)c1ccccc1 [Example 281, N-(4-{[1-(2-methyl-2-phenylpropanoyl)piperidin-4-yl]oxy}phenyl)-1-(pyridazin-4-yl)azetidine-3-carboxamide]
5 | 83.9 nM | 0.247 nM | O=C1CC[C@@H](C(=O)N2CCC(c3ccc(NC(=O)C4CN(c5cccnc5)C4)cc3)CC2)N1 [Example 114, N-{4-[1-(5-oxo-L-prolyl)piperidin-4-yl]phenyl}-1-(pyridin-3-yl)azetidine-3-carboxamide]
6 | 286 nM | 170 nM | Cc1ncccc1N1CC(C(=O)Nc2ccc(C3CCN(C(=O)CCC(F)(F)F)CC3)cc2)C1 [Example 172, 1-(2-methylpyridin-3-yl)-N-{4-[1-(4,4,4-trifluorobutanoyl)piperidin-4-yl]phenyl}azetidine-3-carboxamide]
7 | 22.3 nM | 20 nM | CC(C)(O)C(=O)N1CCC(c2ccc(NC(=O)C3CN(c4cccnc4C#N)C3)cc2)CC1 [Example 2, 1-(2-cyanopyridin-3-yl)-N-{4-[1-(2-hydroxy-2-methylpropanoyl)piperidin-4-yl]phenyl}azetidine-3-carboxamide]
8 | 112 nM | 46.3 nM | O=C(Nc1ccc(OC2CCN(C(=O)C3CCOCC3)CC2)cc1)C1CN(c2ccnnc2)C1 [Example 306, 1-(pyridazin-4-yl)-N-(4-{[1-(tetrahydro-2H-pyran-4-ylcarbonyl)piperidin-4-yl]oxy}phenyl)azetidine-3-carboxamide]
9 | 294 nM | 44 nM | Cc1ncccc1N1CC(C(=O)Nc2ccc(C3CCN(C(=O)c4ccc(F)cc4)CC3)cc2)C1 [Example 155, N-{4-[1-(4-fluorobenzoyl)piperidin-4-yl]phenyl}-1-(2-methylpyridin-3-yl)azetidine-3-carboxamide]
10 | 178 nM | 0.676 nM | COCC(=O)N1CCC(Oc2ccc(NC(=O)C3CN(c4cccnn4)C3)cc2)CC1 [Example 246, N-(4-{[1-(methoxyacetyl)piperidin-4-yl]oxy}phenyl)-1-(pyridazin-3-yl)azetidine-3-carboxamide]
11 | 14.1 nM | 0.169 nM | CC(=O)N1CCC(c2ccc(NC(=O)C3CN(c4cccnc4)C3)cc2)CC1 [Example 118, N-[4-(1-acetylpiperidin-4-yl)phenyl]-1-(pyridin-3-yl)azetidine-3-carboxamide]
12 | 75.4 nM | 19 nM | CC(C)(C)CC(=O)N1CCC(Oc2ccc(NC(=O)C3CN(c4ccnnc4)C3)cc2)CC1 [Example 260, N-(4-{[1-(3,3-dimethylbutanoyl)piperidin-4-yl]oxy}phenyl)-1-(pyridazin-4-yl)azetidine-3-carboxamide]
13 | 152 nM | 64.5 nM | O=C(Nc1ccc(OC2CCN(C(=O)c3ccc(F)c(F)c3)CC2)cc1)C1CN(c2ccnnc2)C1 [Example 274, N-(4-{[1-(3,4-difluorobenzoyl)piperidin-4-yl]oxy}phenyl)-1-(pyridazin-4-yl)azetidine-3-carboxamide]
14 | 56.2 nM | 0.493 nM | O=C(Nc1ccc(C2CCN(C(=O)CN3CCOCC3)CC2)cc1)C1CN(c2cccnc2)C1 [Example 103, N-{4-[1-(morpholin-4-ylacetyl)piperidin-4-yl]phenyl}-1-(pyridin-3-yl)azetidine-3-carboxamide]
15 | 28.8 nM | 0.497 nM | O=C(Nc1ccc(C2CCN(C(=O)Cc3cc(F)cc(F)c3)CC2)cc1)C1CN(c2cccnn2)C1 [Example 384, N-(4-{1-[(3,5-difluorophenyl)acetyl]piperidin-4-yl}phenyl)-1-(pyridazin-3-yl)azetidine-3-carboxamide]
16 | 23.9 nM | 0.973 nM | O=C(Nc1ccc(C2CCN(C(=O)Cc3ccc(Cl)c(Cl)c3)CC2)cc1)C1CN(c2cccnn2)C1 [Example 374, N-(4-{1-[(3,4-dichlorophenyl)acetyl]piperidin-4-yl}phenyl)-1-(pyridazin-3-yl)azetidine-3-carboxamide]

Row | IC50 [1] | IC50 (NAMPT) | Compound
17 | 20.7 nM | 54.3 nM | Cc1ncccc1N1CC(C(=O)Nc2ccc(C3CCN(C(=O)c4ccccc4)CC3)cc2)C1 [Example 149, N-[4-(1-benzoylpiperidin-4-yl)phenyl]-1-(2-methylpyridin-3-yl)azetidine-3-carboxamide]
18 | 47.3 nM | 72.3 nM | Cc1ncccc1N1CC(C(=O)Nc2ccc(C3CCN(C(=O)CC(C)(C)C)CC3)cc2)C1 [Example 192, N-{4-[1-(3,3-dimethylbutanoyl)piperidin-4-yl]phenyl}-1-(2-methylpyridin-3-yl)azetidine-3-carboxamide]
19 | 52.7 nM | 0.514 nM | O=C(Nc1ccc(OC2CCN(C(=O)c3ccco3)CC2)cc1)C1CN(c2cccnc2)C1 [Example 63, N-(4-{[1-(furan-2-ylcarbonyl)piperidin-4-yl]oxy}phenyl)-1-(pyridin-3-yl)azetidine-3-carboxamide]
20 | 163 nM | 0.169 nM | CN(C)CCC(=O)N1CCC(c2ccc(NC(=O)C3CN(c4cccnc4)C3)cc2)CC1 [Example 107, N-{4-[1-(N,N-dimethyl-beta-alanyl)piperidin-4-yl]phenyl}-1-(pyridin-3-yl)azetidine-3-carboxamide]
21 | 77.6 nM | 51 nM | O=C(Nc1ccc(OC2CCN(C(=O)c3cccc(Cl)c3)CC2)cc1)C1CN(c2ccnnc2)C1 [Example 295, N-(4-{[1-(3-chlorobenzoyl)piperidin-4-yl]oxy}phenyl)-1-(pyridazin-4-yl)azetidine-3-carboxamide]
22 | 48.2 nM | 0.178 nM | CCOCCC(=O)N1CCC(c2ccc(NC(=O)C3CN(c4cccnc4)C3)cc2)CC1 [Example 115, N-{4-[1-(3-ethoxypropanoyl)piperidin-4-yl]phenyl}-1-(pyridin-3-yl)azetidine-3-carboxamide]
23 | 64 nM | 0.635 nM | O=C(Nc1ccc(C2CCN(C(=O)Cc3ccc(F)cc3)CC2)cc1)C1CN(c2cccnn2)C1 [Example 368, N-(4-{1-[(4-fluorophenyl)acetyl]piperidin-4-yl}phenyl)-1-(pyridazin-3-yl)azetidine-3-carboxamide]
24 | 18.2 nM | 0.578 nM | CSCC(=O)N1CCC(c2ccc(NC(=O)C3CN(c4cccnn4)C3)cc2)CC1 [Example 334, N-(4-{1-[(methylsulfanyl)acetyl]piperidin-4-yl}phenyl)-1-(pyridazin-3-yl)azetidine-3-carboxamide]
25 | 24.9 nM | 0.83 nM | C=CCCC(=O)N1CCC(c2ccc(NC(=O)C3CN(c4cccnn4)C3)cc2)CC1 [Example 331, N-{4-[1-(pent-4-enoyl)piperidin-4-yl]phenyl}-1-(pyridazin-3-yl)azetidine-3-carboxamide]
26 | 25.3 nM | 0.885 nM | CCC(C)CC(=O)N1CCC(c2ccc(NC(=O)C3CN(c4cccnn4)C3)cc2)CC1 (centres unmarked) [Example 323, N-{4-[1-(3-methylpentanoyl)piperidin-4-yl]phenyl}-1-(pyridazin-3-yl)azetidine-3-carboxamide]
27 | 1170 nM | 0.554 nM | CC[C@H](C)C(=O)N1CCC(Oc2ccc(NC(=O)[C@H]3CCN(c4cccnc4)C3)cc2)CC1 [Example 19, (3S)-N-[4-({1-[(2S)-2-methylbutanoyl]piperidin-4-yl}oxy)phenyl]-1-(pyridin-3-yl)pyrrolidine-3-carboxamide]
28 | 166 nM | 83.1 nM | Cc1ncccc1N1CC(C(=O)Nc2ccc(C3CCN(C(=O)C4CC4C)CC3)cc2)C1 (centres unmarked) [Example 163, N-(4-{1-[(2-methylcyclopropyl)carbonyl]piperidin-4-yl}phenyl)-1-(2-methylpyridin-3-yl)azetidine-3-carboxamide]
29 | 456 nM | 5.37 nM | CC(C)C(=O)N1CCC(c2ccc(NC(=O)[C@H]3CCN(c4cccnn4)C3)cc2)CC1 [Example 310, (3S)—N-{4-[1-(2-methylpropanoyl)piperidin-4-yl]phenyl}-1-(pyridazin-3-yl)pyrrolidine-3-carboxamide]
30 | 165 nM | 52.4 nM | O=C(Nc1ccc(OC2CCN(C(=O)c3cscn3)CC2)cc1)C1CN(c2ccnnc2)C1 [Example 272, 1-(pyridazin-4-yl)-N-(4-{[1-(1,3-thiazol-4-ylcarbonyl)piperidin-4-yl]oxy}phenyl)azetidine-3-carboxamide]
31 | 65.9 nM | 0.696 nM | O=C(Nc1ccc(OC2CCN(C(=O)Cc3cccc(F)c3)CC2)cc1)C1CN(c2cccnn2)C1 [Example 227, N-[4-({1-[(3-fluorophenyl)acetyl]piperidin-4-yl}oxy)phenyl]-1-(pyridazin-3-yl)azetidine-3-carboxamide]
